Reference: patent US7250442B2, “Dihydroindol-2-one derivatives as steroid hormone nuclear receptor modulators” (Eli Lilly and Company, priority 2003, dated 2007)

What follows are compounds tested against T1, glucocorticoid receptor (Homo sapiens, UniProt P04150) (assay: Glucocorticoid Receptor Binding Assay ([3H]-dexamethasone displacement, A549 cell extract)). Conditions: A549 human lung epithelial cell extract, 1.86 nM [3H]-dexamethasone; read-out: GR Ki.
T1 construct: host or cells: A549 human lung epithelial cells (sonicated cell extract)
T1 sequence (P04150 1-777): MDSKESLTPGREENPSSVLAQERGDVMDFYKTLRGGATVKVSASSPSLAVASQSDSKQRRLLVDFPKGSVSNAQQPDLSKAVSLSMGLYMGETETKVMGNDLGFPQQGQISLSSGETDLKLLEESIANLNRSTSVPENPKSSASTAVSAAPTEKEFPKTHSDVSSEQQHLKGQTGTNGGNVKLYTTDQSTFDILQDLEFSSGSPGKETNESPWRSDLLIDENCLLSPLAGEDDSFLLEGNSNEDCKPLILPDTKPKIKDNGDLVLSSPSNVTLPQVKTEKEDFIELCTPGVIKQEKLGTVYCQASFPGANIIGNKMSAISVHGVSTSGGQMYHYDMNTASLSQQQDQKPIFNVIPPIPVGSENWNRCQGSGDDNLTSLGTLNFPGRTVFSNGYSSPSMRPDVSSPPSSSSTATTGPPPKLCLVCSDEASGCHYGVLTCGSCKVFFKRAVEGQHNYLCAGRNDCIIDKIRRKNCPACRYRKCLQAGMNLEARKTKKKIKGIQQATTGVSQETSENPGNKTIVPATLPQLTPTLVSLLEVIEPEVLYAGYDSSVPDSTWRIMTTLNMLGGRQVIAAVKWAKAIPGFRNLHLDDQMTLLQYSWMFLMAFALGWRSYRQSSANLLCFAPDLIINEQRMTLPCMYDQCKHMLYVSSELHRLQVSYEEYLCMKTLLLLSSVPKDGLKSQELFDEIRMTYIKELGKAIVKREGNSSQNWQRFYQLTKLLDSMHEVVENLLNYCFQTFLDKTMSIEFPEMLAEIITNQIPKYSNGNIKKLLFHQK
Experimental: Glucocorticoid Receptor Binding Assay:
A549 human lung epithelial cells (ATCC) are grown at a scale where gram quantity cell pellets are obtained. Harvested cell pellets are washed twice in cold phosphate buffered saline, centrifuged, and resuspended in cold assay binding buffer. The assay binding buffer consists of 10% glycerol, 50 mM Tris-HCl (pH7.2), 75 mM sodium chloride, 1.5 mM magnesium chloride, 1.5 mM EDTA, and 10 mM sodium molybdate. Cell suspensions were lysed via sonication, centrifuged, and the “extract” supernatant is snap frozen and stored at −80C. until needed.
GR binding assays are performed in a final volume of 140 ul containing 50-200 ug of A549 cell extract and 1.86 nM [^3H]-dexamethasone (Amersham) plus varying concentrations of test compound or vehicle. Briefly, assays are prepared at RT in 96-well Fisher 3356 plates, each well containing 100 ul of A549 cell extract, 20 ul of [^3H]-dexamethasone, and 20 ul of test compound/vehicle. Incubations are carried out at 4 degrees celsius for 16 hours. After incubation, 70 ul of 3× dextran-coated charcoal solution is added to each reaction, mixed, and incubated for 8 minutes at RT. 3×-dextran-coated charcoal solution consists of 250 ml assay binding buffer, 3.75 g Norit A charcoal (Sigma), and 1.25 g dextran T-70 (Amersham). Charcoal/unbound radioligand complexes are removed by centrifugation of the plate and 140 ul of supernatant from each well is transferred to another 96 well Optiplate (Packard Instruments). 200 ul of Microscint-20 scinillant (Packard Instruments) is added to each well and amount of receptor bound radioligand is determined using Packard Instruments TopCount instrument.
IC50 values, defined as the concentration of test compound required to decrease [^3H]-dexamethasone binding by 50%, are then determined. Ki values for each respective test compound can then be calculated by application of the Cheng-Prusoff equation as described in Cheng et al., Relationship Between The Inhibition Constant (Ki) and The Concentration of Inhibitor Which Causes 50% Inhibition (IC50) of an Enzymatic Reaction, Biochem. Pharmacol., 22: 3099-31088; (1973).

| Compound | Ki [nM] |
| --- | --- |
| Cc1cc(C2(c3cc(C)c(O)c(C)c3)C(=O)N(Cc3ccc(Br)cc3)c3ccccc32)cc(C)c1O [Example 58, 1-(4-Bromo-benzyl)-3,3-bis-(4-hydroxy-3,5-dimethyl-phenyl)-1,3-dihydro-indol-2-one] | ≤ 500 |
| Cc1cc(C2(c3cc(C)c(O)c(C)c3)C(=O)N(Cc3ccc([N+](=O)[O-])cc3)c3ccccc32)cc(C)c1O [Example 62, 3,3-Bis-(4-hydroxy-3,5-dimethyl-phenyl)-1-(4-nitro-benzyl)-1,3-dihydro-indol-2-one] | ≤ 500 |
| Cc1cc(C2(c3cc(C)c(O)c(C)c3)C(=O)N(Cc3ccccc3Br)c3ccccc32)cc(C)c1O [Example 63, 1-(2-Bromo-benzyl)-3,3-bis-(4-hydroxy-3,5-dimethyl-phenyl)-1,3-dihydro-indol-2-one] | ≤ 500 |
| Cc1cc(C2(c3cc(C)c(O)c(C)c3)C(=O)N(Cc3cccc(Br)c3)c3ccccc32)cc(C)c1O [Example 64, 1-(3-Bromo-benzyl)-3,3-bis-(4-hydroxy-3,5-dimethyl-phenyl)-1,3-dihydro-indol-2-one] | ≤ 500 |
| Cc1cc(C2(c3cc(C)c(O)c(C)c3)C(=O)N(Cc3ccccc3[N+](=O)[O-])c3ccccc32)cc(C)c1O [Example 65, 3,3-Bis-(4-hydroxy-3,5-dimethyl-phenyl)-1-(2-nitro-benzyl)-1,3-dihydro-indol-2-one] | ≤ 500 |
| Cc1cc(C2(c3cc(C)c(O)c(C)c3)C(=O)N(Cc3cccc(F)c3F)c3ccccc32)cc(C)c1O [Example 66, 1-(2,3-Difluoro-benzyl)-3,3-bis-(4-hydroxy-3,5-dimethyl-phenyl)-1,3-dihydro-indol-2-one] | ≤ 500 |
| Cc1cc(C2(c3cc(C)c(O)c(C)c3)C(=O)N(Cc3ccc(OC(F)(F)F)cc3)c3ccccc32)cc(C)c1O [Example 67, 3,3-Bis-(4-hydroxy-3,5-dimethyl-phenyl)-1-(4-trifluoromethoxy-benzyl)-1,3-dihydro-indol-2-one] | ≤ 500 |
| Cc1cc(C2(c3cc(C)c(O)c(C)c3)C(=O)N(Cc3ccc(C(F)(F)F)cc3C(F)(F)F)c3ccccc32)cc(C)c1O [Example 68, 1-(2,4-Bis-trifluoromethyl-benzyl)-3,3-bis-(4-hydroxy-3,5-dimethyl-phenyl)-1,3-dihydro-indol-2-one] | ≤ 1000 |
| Cc1cc(C2(c3cc(C)c(O)c(C)c3)C(=O)N(Cc3cccc(C)c3F)c3ccccc32)cc(C)c1O [Example 70, 1-(2-Fluoro-3-methyl-benzyl)-3,3-bis-(4-hydroxy-3,5-dimethyl-phenyl)-1,3-dihydro-indol-2-one] | ≤ 500 |
| Cc1cc(C2(c3cc(C)c(O)c(C)c3)C(=O)N(Cc3ccc([N+](=O)[O-])o3)c3ccccc32)cc(C)c1O [Example 73, 3,3-Bis-(4-hydroxy-3,5-dimethyl-phenyl)-1-(5-nitro-furan-2-ylmethyl)-1,3-dihydro-indol-2-one] | ≤ 500 |
| Cc1cc(C2(c3cc(C)c(O)c(C)c3)C(=O)N(Cc3ccc(OCc4ccccc4)cc3)c3ccccc32)cc(C)c1O [Example 74, 1-(4-Benzyloxy-benzyl)-3,3-bis-(4-hydroxy-3,5-dimethyl-phenyl)-1,3-dihydro-indol-2-one] | ≤ 1000 |
| Cc1cc(C2(c3cc(C)c(O)c(C)c3)C(=O)N(Cc3c(F)cccc3Cl)c3ccccc32)cc(C)c1O [Example 76, 1-(2-Chloro-6-fluoro-benzyl)-3,3-bis-(4-hydroxy-3,5-dimethyl-phenyl)-1,3-dihydro-indol-2-one] | ≤ 500 |
| CCCCCN1C(=O)C(c2cc(C)c(O)c(C)c2)(c2cc(C)c(O)c(C)c2)c2ccccc21 [Example 77, 3,3-Bis-(4-hydroxy-3,5-dimethyl-phenyl)-1-pentyl-1,3-dihydro-indol-2-one] | ≤ 500 |
| Cc1cc(C2(c3cc(C)c(O)c(C)c3)C(=O)N(CC#N)c3ccccc32)cc(C)c1O [Example 78, [3,3-Bis-(4-hydroxy-3,5-dimethyl-phenyl)-2-oxo-2,3-dihydro-indol-1-yl]-acetonitrile] | ≤ 500 |
| Cc1cc(C2(c3cc(C)c(O)c(C)c3)C(=O)N(Cc3ccccc3OC(F)F)c3ccccc32)cc(C)c1O [Example 79, 1-(2-Difluoromethoxy-benzyl)-3,3-bis-(4-hydroxy-3,5-dimethyl-phenyl)-1,3-dihydro-indol-2-one] | ≤ 500 |
| CCOCCN1C(=O)C(c2cc(C)c(O)c(C)c2)(c2cc(C)c(O)c(C)c2)c2ccccc21 [Example 80, 1-(2-Ethoxy-ethyl)-3,3-bis-(4-hydroxy-3,5-dimethyl-phenyl)-1,3-dihydro-indol-2-one] | ≤ 500 |
| Cc1cc(C2(c3cc(C)c(O)c(C)c3)C(=O)N(Cc3ccc(Cl)cc3F)c3ccccc32)cc(C)c1O [Example 83, 1-(4-Chloro-2-fluoro-benzyl)-3,3-bis-(4-hydroxy-3,5-dimethyl-phenyl)-1,3-dihydro-indol-2-one] | ≤ 500 |
| Cc1cc(C2(c3cc(C)c(O)c(C)c3)C(=O)N(Cc3ccc(-c4csnn4)cc3)c3ccccc32)cc(C)c1O [Example 84, 3,3-Bis-(4-hydroxy-3,5-dimethyl-phenyl)-1-(4-[1,2,3]thiadiazol-4-yl-benzyl)-1,3-dihydro-indol-2-one] | ≤ 500 |
| Cc1cc(C2(c3cc(C)c(O)c(C)c3)C(=O)N(Cc3cccc([N+](=O)[O-])c3)c3ccccc32)cc(C)c1O [Example 85, 3,3-Bis-(4-hydroxy-3,5-dimethyl-phenyl)-1-(3-nitro-benzyl)-1,3-dihydro-indol-2-one] | ≤ 500 |
| Cc1cc(C2(c3cc(C)c(O)c(C)c3)C(=O)N(Cc3noc(C4CCC4)n3)c3ccccc32)cc(C)c1O [Example 86, 1-(5-Cyclobutyl-[1,2,4]oxadiazol-3-ylmethyl)-3,3-bis-(4-hydroxy-3,5-dimethyl-phenyl)-1,3-dihydro-indol-2-one] | ≤ 500 |
| Cc1cc(C2(c3cc(C)c(O)c(C)c3)C(=O)N(Cc3noc(-c4ccco4)n3)c3ccccc32)cc(C)c1O [Example 87, 1-(5-Furan-2-yl-[1,2,4]oxadiazol-3-ylmethyl)-3,3-bis-(4-hydroxy-3,5-dimethyl-phenyl)-1,3-dihydro-indol-2-one] | ≤ 500 |
| CCc1nc(CN2C(=O)C(c3cc(C)c(O)c(C)c3)(c3cc(C)c(O)c(C)c3)c3ccccc32)cs1 [Example 90, 1-(2-Ethyl-thiazol-4-ylmethyl)-3,3-bis-(4-hydroxy-3,5-dimethyl-phenyl)-1,3-dihydro-indol-2-one] | ≤ 1000 |
| Cc1cc(C2(c3cc(C)c(O)c(C)c3)C(=O)N(Cc3csc(-c4ccccc4)n3)c3ccccc32)cc(C)c1O [Example 91, 3,3-Bis-(4-hydroxy-3,5-dimethyl-phenyl)-1-(2-phenyl-thiazol-4-ylmethyl)-1,3-dihydro-indol-2-one] | ≤ 10000 |
| Cc1ccc2c(c1)C(c1cc(C)c(O)c(C)c1)(c1cc(C)c(O)c(C)c1)C(=O)N2Cc1csc(-c2ccccc2)n1 [Example 92, 3,3-Bis-(4-hydroxy-3,5-dimethyl-phenyl)-5-methyl-1-(2-phenyl-thiazol-4-ylmethyl)-1,3-dihydro-indol-2-one] | ≤ 500 |
| COc1ccc(-c2nc(CN3C(=O)C(c4cc(C)c(O)c(C)c4)(c4cc(C)c(O)c(C)c4)c4ccccc43)cs2)cc1 [Example 94, 3,3-Bis-(4-hydroxy-3,5-dimethyl-phenyl)-1-[2-(4-methoxy-phenyl)-thiazol-4-ylmethyl]-1,3-dihydro-indol-2-one] | ≤ 10000 |
